# Laboratory results: the NIST ThermoML archive (doi:10.1021/je030147g)
# Numbers after ± are expanded uncertainties.
# How the values were obtained:
# [1] = xn = mol fraction of the nth substance listed; conditions: 101.33 kPa, Liquid
# [2] = refractive index (Na D-line) (dimensionless); xn = mol fraction of the nth substance listed; conditions: 101.33 kPa, Liquid
smiles,measurement,setting,value
c1ccncc1 [pyridine] + CCCCN(CCCC)CCCC,mass density,"[1]; 298.15 K, x2 = 0",979 ± 1 kg/m3
same,speed of sound,"[1]; 298.15 K, x2 = 0",1412 ± 6 m/s
same,viscosity,"[1]; 298.15 K, x2 = 0",0.885 ± 0.022 mPa·s
same,mass density,"[1]; 303.15 K, x2 = 0",973.7 ± 1 kg/m3
same,viscosity,"[1]; 303.15 K, x2 = 0",0.82 ± 0.021 mPa·s
same,mass density,"[1]; 308.15 K, x2 = 0",968.6 ± 1.1 kg/m3
same,viscosity,"[1]; 308.15 K, x2 = 0",0.766 ± 0.02 mPa·s
same,refractive index,"[2]; 298.15 K, x2 = 0",1.5062 ± 0.0012
same,refractive index,"[2]; 303.15 K, x2 = 0",1.5025 ± 0.0012
same,refractive index,"[2]; 308.15 K, x2 = 0",1.5016 ± 0.0012
ClC(Cl)=C(Cl)Cl [tetrachloroethene] + CCCCN(CCCC)CCCC,mass density,"[1]; 298.15 K, x2 = 0",1616 ± 1.7 kg/m3
same,speed of sound,"[1]; 298.15 K, x2 = 0",1033 ± 5 m/s
same,viscosity,"[1]; 298.15 K, x2 = 0",0.875 ± 0.022 mPa·s
same,mass density,"[1]; 303.15 K, x2 = 0",1607.5 ± 1.8 kg/m3
same,viscosity,"[1]; 303.15 K, x2 = 0",0.831 ± 0.021 mPa·s
same,mass density,"[1]; 308.15 K, x2 = 0",1597.5 ± 1.8 kg/m3
same,viscosity,"[1]; 308.15 K, x2 = 0",0.791 ± 0.02 mPa·s
same,refractive index,"[2]; 298.15 K, x2 = 0",1.5036 ± 0.0012
same,refractive index,"[2]; 303.15 K, x2 = 0",1.5005 ± 0.0012
same,refractive index,"[2]; 308.15 K, x2 = 0",1.4978 ± 0.0012
CCCCCCCCCCCCCC [tetradecane] + CCCCN(CCCC)CCCC,mass density,"[1]; 298.15 K, x2 = 0",760.7 ± 0.8 kg/m3
same,speed of sound,"[1]; 298.15 K, x2 = 0",1315 ± 6 m/s
same,viscosity,"[1]; 298.15 K, x2 = 0",2.032 ± 0.19 mPa·s
same,mass density,"[1]; 303.15 K, x2 = 0",757 ± 0.8 kg/m3
same,viscosity,"[1]; 303.15 K, x2 = 0",1.827 ± 0.17 mPa·s
same,mass density,"[1]; 308.15 K, x2 = 0",753.3 ± 0.9 kg/m3
same,viscosity,"[1]; 308.15 K, x2 = 0",1.653 ± 0.15 mPa·s
same,refractive index,"[2]; 298.15 K, x2 = 0",1.4282 ± 0.0007
same,refractive index,"[2]; 303.15 K, x2 = 0",1.426 ± 0.0007
same,refractive index,"[2]; 308.15 K, x2 = 0",1.4236 ± 0.0007
C1CCOC1 [tetrahydrofuran] + CCCCN(CCCC)CCCC,mass density,"[1]; 298.15 K, x2 = 0",882.9 ± 0.8 kg/m3
same,speed of sound,"[1]; 298.15 K, x2 = 0",1288 ± 6 m/s
same,viscosity,"[1]; 298.15 K, x2 = 0",0.485 ± 0.014 mPa·s
same,mass density,"[1]; 303.15 K, x2 = 0",877.5 ± 0.9 kg/m3
same,viscosity,"[1]; 303.15 K, x2 = 0",0.46 ± 0.013 mPa·s
same,mass density,"[1]; 308.15 K, x2 = 0",871.2 ± 0.9 kg/m3
same,viscosity,"[1]; 308.15 K, x2 = 0",0.439 ± 0.013 mPa·s
same,refractive index,"[2]; 298.15 K, x2 = 0",1.4049 ± 0.0012
same,refractive index,"[2]; 303.15 K, x2 = 0",1.4026 ± 0.0012
same,refractive index,"[2]; 308.15 K, x2 = 0",1.3998 ± 0.0012
CCCCN(CCCC)CCCC [tributylamine] + C1CCOC1,mass density,"[1]; 298.15 K, x1 = 0.1033",853.3 ± 0.8 kg/m3
same,speed of sound,"[1]; 298.15 K, x1 = 0.1033",1283 ± 6 m/s
same,viscosity,"[1]; 298.15 K, x1 = 0.1033",0.571 ± 0.015 mPa·s
same,mass density,"[1]; 298.15 K, x1 = 0.2033",833.4 ± 0.8 kg/m3
same,speed of sound,"[1]; 298.15 K, x1 = 0.2033",1278 ± 6 m/s
same,viscosity,"[1]; 298.15 K, x1 = 0.2033",0.656 ± 0.017 mPa·s
same,mass density,"[1]; 298.15 K, x1 = 0.3041",818.9 ± 0.8 kg/m3
same,speed of sound,"[1]; 298.15 K, x1 = 0.3041",1274 ± 6 m/s
same,viscosity,"[1]; 298.15 K, x1 = 0.3041",0.741 ± 0.019 mPa·s
same,mass density,"[1]; 298.15 K, x1 = 0.4012",808.1 ± 0.8 kg/m3
same,speed of sound,"[1]; 298.15 K, x1 = 0.4012",1271 ± 6 m/s
same,viscosity,"[1]; 298.15 K, x1 = 0.4012",0.818 ± 0.021 mPa·s
same,mass density,"[1]; 298.15 K, x1 = 0.5024",799.2 ± 0.8 kg/m3
same,speed of sound,"[1]; 298.15 K, x1 = 0.5024",1269 ± 6 m/s
same,viscosity,"[1]; 298.15 K, x1 = 0.5024",0.897 ± 0.023 mPa·s
same,mass density,"[1]; 298.15 K, x1 = 0.5974",792.5 ± 0.8 kg/m3
same,speed of sound,"[1]; 298.15 K, x1 = 0.5974",1267 ± 6 m/s
same,viscosity,"[1]; 298.15 K, x1 = 0.5974",0.967 ± 0.024 mPa·s
same,mass density,"[1]; 298.15 K, x1 = 0.6814",787.5 ± 0.8 kg/m3
same,speed of sound,"[1]; 298.15 K, x1 = 0.6814",1266 ± 6 m/s
same,viscosity,"[1]; 298.15 K, x1 = 0.6814",1.028 ± 0.026 mPa·s
same,mass density,"[1]; 298.15 K, x1 = 0.7898",782.1 ± 0.8 kg/m3
same,speed of sound,"[1]; 298.15 K, x1 = 0.7898",1264 ± 6 m/s
same,viscosity,"[1]; 298.15 K, x1 = 0.7898",1.1 ± 0.027 mPa·s
same,mass density,"[1]; 298.15 K, x1 = 0.8941",777.8 ± 0.8 kg/m3
same,speed of sound,"[1]; 298.15 K, x1 = 0.8941",1263 ± 6 m/s
same,viscosity,"[1]; 298.15 K, x1 = 0.8941",1.167 ± 0.029 mPa·s
same,mass density,"[1]; 298.15 K, x1 = 1",773.9 ± 0.8 kg/m3
same,speed of sound,"[1]; 298.15 K, x1 = 1",1262 ± 6 m/s
same,viscosity,"[1]; 298.15 K, x1 = 1",1.239 ± 0.03 mPa·s
same,mass density,"[1]; 303.15 K, x1 = 0.1033",847.9 ± 0.9 kg/m3
same,viscosity,"[1]; 303.15 K, x1 = 0.1033",0.539 ± 0.015 mPa·s
same,mass density,"[1]; 303.15 K, x1 = 0.2033",828.4 ± 0.8 kg/m3
same,viscosity,"[1]; 303.15 K, x1 = 0.2033",0.618 ± 0.017 mPa·s
same,mass density,"[1]; 303.15 K, x1 = 0.3041",814.2 ± 0.8 kg/m3
same,viscosity,"[1]; 303.15 K, x1 = 0.3041",0.693 ± 0.018 mPa·s
same,mass density,"[1]; 303.15 K, x1 = 0.4012",803.5 ± 0.8 kg/m3
same,viscosity,"[1]; 303.15 K, x1 = 0.4012",0.763 ± 0.02 mPa·s
same,mass density,"[1]; 303.15 K, x1 = 0.5024",794.7 ± 0.8 kg/m3
same,viscosity,"[1]; 303.15 K, x1 = 0.5024",0.833 ± 0.021 mPa·s
same,mass density,"[1]; 303.15 K, x1 = 0.5974",788.2 ± 0.8 kg/m3
same,viscosity,"[1]; 303.15 K, x1 = 0.5974",0.896 ± 0.023 mPa·s
same,mass density,"[1]; 303.15 K, x1 = 0.6814",783.1 ± 0.8 kg/m3
same,viscosity,"[1]; 303.15 K, x1 = 0.6814",0.949 ± 0.024 mPa·s
same,mass density,"[1]; 303.15 K, x1 = 0.7898",777.9 ± 0.8 kg/m3
same,viscosity,"[1]; 303.15 K, x1 = 0.7898",1.014 ± 0.025 mPa·s
same,mass density,"[1]; 303.15 K, x1 = 0.8941",773.6 ± 0.8 kg/m3
same,viscosity,"[1]; 303.15 K, x1 = 0.8941",1.071 ± 0.027 mPa·s
same,mass density,"[1]; 303.15 K, x1 = 1",769.2 ± 0.8 kg/m3
same,viscosity,"[1]; 303.15 K, x1 = 1",1.124 ± 0.028 mPa·s
same,mass density,"[1]; 308.15 K, x1 = 0.1033",842.5 ± 0.9 kg/m3
same,viscosity,"[1]; 308.15 K, x1 = 0.1033",0.509 ± 0.014 mPa·s
same,mass density,"[1]; 308.15 K, x1 = 0.2033",823.5 ± 0.9 kg/m3
same,viscosity,"[1]; 308.15 K, x1 = 0.2033",0.581 ± 0.016 mPa·s
same,mass density,"[1]; 308.15 K, x1 = 0.3041",809.3 ± 0.9 kg/m3
same,viscosity,"[1]; 308.15 K, x1 = 0.3041",0.646 ± 0.017 mPa·s
same,mass density,"[1]; 308.15 K, x1 = 0.4012",798.9 ± 0.9 kg/m3
same,viscosity,"[1]; 308.15 K, x1 = 0.4012",0.708 ± 0.019 mPa·s
same,mass density,"[1]; 308.15 K, x1 = 0.5024",790.3 ± 0.9 kg/m3
same,viscosity,"[1]; 308.15 K, x1 = 0.5024",0.769 ± 0.02 mPa·s
same,mass density,"[1]; 308.15 K, x1 = 0.5974",783.8 ± 0.9 kg/m3
same,viscosity,"[1]; 308.15 K, x1 = 0.5974",0.825 ± 0.021 mPa·s
same,mass density,"[1]; 308.15 K, x1 = 0.6814",778.9 ± 0.9 kg/m3
same,viscosity,"[1]; 308.15 K, x1 = 0.6814",0.871 ± 0.022 mPa·s
same,mass density,"[1]; 308.15 K, x1 = 0.7898",773.6 ± 0.9 kg/m3
same,viscosity,"[1]; 308.15 K, x1 = 0.7898",0.928 ± 0.023 mPa·s
same,mass density,"[1]; 308.15 K, x1 = 0.8941",769.4 ± 0.9 kg/m3
same,viscosity,"[1]; 308.15 K, x1 = 0.8941",0.976 ± 0.025 mPa·s
same,mass density,"[1]; 308.15 K, x1 = 1",765.7 ± 0.9 kg/m3
same,viscosity,"[1]; 308.15 K, x1 = 1",1.02 ± 0.026 mPa·s
same,refractive index,"[2]; 298.15 K, x1 = 0.1033",1.412 ± 0.0012
same,refractive index,"[2]; 298.15 K, x1 = 0.2033",1.415 ± 0.0012
same,refractive index,"[2]; 298.15 K, x1 = 0.3041",1.418 ± 0.0012
same,refractive index,"[2]; 298.15 K, x1 = 0.4012",1.42 ± 0.0012
same,refractive index,"[2]; 298.15 K, x1 = 0.5024",1.4229 ± 0.0012
same,refractive index,"[2]; 298.15 K, x1 = 0.5974",1.4235 ± 0.0012
same,refractive index,"[2]; 298.15 K, x1 = 0.6814",1.4249 ± 0.0013
same,refractive index,"[2]; 298.15 K, x1 = 0.7898",1.4265 ± 0.0013
same,refractive index,"[2]; 298.15 K, x1 = 0.8941",1.4269 ± 0.0013
same,refractive index,"[2]; 298.15 K, x1 = 1",1.4276 ± 0.0013
same,refractive index,"[2]; 303.15 K, x1 = 0.1033",1.4094 ± 0.0012
same,refractive index,"[2]; 303.15 K, x1 = 0.2033",1.4141 ± 0.0012
same,refractive index,"[2]; 303.15 K, x1 = 0.3041",1.4155 ± 0.0012
same,refractive index,"[2]; 303.15 K, x1 = 0.4012",1.4178 ± 0.0012
same,refractive index,"[2]; 303.15 K, x1 = 0.5024",1.4203 ± 0.0012
same,refractive index,"[2]; 303.15 K, x1 = 0.5974",1.4211 ± 0.0012
same,refractive index,"[2]; 303.15 K, x1 = 0.6814",1.4226 ± 0.0013
same,refractive index,"[2]; 303.15 K, x1 = 0.7898",1.4238 ± 0.0013
same,refractive index,"[2]; 303.15 K, x1 = 0.8941",1.4246 ± 0.0013
same,refractive index,"[2]; 303.15 K, x1 = 1",1.4254 ± 0.0013
same,refractive index,"[2]; 308.15 K, x1 = 0.1033",1.4068 ± 0.0012
same,refractive index,"[2]; 308.15 K, x1 = 0.3041",1.413 ± 0.0012
same,refractive index,"[2]; 308.15 K, x1 = 0.4012",1.4156 ± 0.0012
same,refractive index,"[2]; 308.15 K, x1 = 0.5024",1.4178 ± 0.0012
same,refractive index,"[2]; 308.15 K, x1 = 0.5974",1.4188 ± 0.0012
same,refractive index,"[2]; 308.15 K, x1 = 0.6814",1.4203 ± 0.0013
same,refractive index,"[2]; 308.15 K, x1 = 0.7898",1.4212 ± 0.0013
same,refractive index,"[2]; 308.15 K, x1 = 0.8941",1.4224 ± 0.0013
same,refractive index,"[2]; 308.15 K, x1 = 1",1.4228 ± 0.0013
